Results on 1 molecule are retold here after article doi:10.1101/2024.01.03.573903v1 (biorxiv, 2024).

The experiment concerns the target T1, ZIKV NS3 helicase (Zika virus, UniProt Q32ZE1).
T1 sequence (Q32ZE1 1673-2115 limits assumed): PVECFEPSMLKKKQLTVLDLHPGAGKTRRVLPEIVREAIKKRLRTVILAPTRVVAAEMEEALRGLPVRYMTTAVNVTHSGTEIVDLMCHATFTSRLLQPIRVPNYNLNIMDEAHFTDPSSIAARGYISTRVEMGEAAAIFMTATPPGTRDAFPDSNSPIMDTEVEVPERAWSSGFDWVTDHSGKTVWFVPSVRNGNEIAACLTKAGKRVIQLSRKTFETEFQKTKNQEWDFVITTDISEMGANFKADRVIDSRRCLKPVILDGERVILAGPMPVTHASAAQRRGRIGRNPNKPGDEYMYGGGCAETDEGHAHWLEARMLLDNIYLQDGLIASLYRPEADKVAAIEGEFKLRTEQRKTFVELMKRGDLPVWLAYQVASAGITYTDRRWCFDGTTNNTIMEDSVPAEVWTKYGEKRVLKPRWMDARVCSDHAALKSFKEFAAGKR
The experiment is described as follows: malachite green phosphate release NTPase assay. Type of experiment: biochemical.

Broadly, the IC50 is the concentration that gives 50% inhibition. A low value points to higher potency.

`COc1cc(/C=C/C(=O)CC(=O)/C=C/c2ccc(O)c(OC)c2)ccc1O` [curcumin] displayed a half-maximal inhibitory concentration (IC50) of 64.4 µM. This lies in the double-digit micromolar range.
